Patent publication US9758508B2, “2,3-dihydro-isoindole-1-on derivative as BTK kinase suppressant, and pharmaceutical composition including same” (CRYSTALGENOMICS, INC., priority 2012, dated 2017)
pIC50: −log10 of the molar value.

Biological target: BTK (Homo sapiens (Human), UniProt Q06187)
Assay: Assay for BTK inhibition activity (ELISA method)
Format: biochemical
Details: 0.4 nM BTK enzyme, 50 μM ATP, 20 minutes at 30° C.
Protocol: In order to evaluate the activity of the compounds of the present invention as a BTK inhibitor, commercially available BTK (Promega) was used for this experiment. Specifically, an enzymatic reaction was conducted by mixing 0.4 nM of BTK enzyme, 40 μM of biotin-S1 substrate peptide and 50 μM of ATP in a reaction buffer (15 mM Tris-HCl (pH 7.5), 20 mM MgCl2, 2 mM MnCl2, 2 mM DTT, 0.1 mg/ml BSA). The mixture was treated with the test compounds at predetermined concentrations and allowed to react for 20 minutes at 30° C. Upon completion of the reaction, the activities of the test compounds were measured by ELISA method. The absorbance value of an untreated sample was used as a control (100% control). BTK enzyme activities were measured after treatment with various concentrations of the test compounds, and the concentration of test compounds resulting in 50% inhibition of BTK enzyme as compared to the control was determined as IC50 of BTK inhibitor.

Chain of BTK (Q06187 whole entry): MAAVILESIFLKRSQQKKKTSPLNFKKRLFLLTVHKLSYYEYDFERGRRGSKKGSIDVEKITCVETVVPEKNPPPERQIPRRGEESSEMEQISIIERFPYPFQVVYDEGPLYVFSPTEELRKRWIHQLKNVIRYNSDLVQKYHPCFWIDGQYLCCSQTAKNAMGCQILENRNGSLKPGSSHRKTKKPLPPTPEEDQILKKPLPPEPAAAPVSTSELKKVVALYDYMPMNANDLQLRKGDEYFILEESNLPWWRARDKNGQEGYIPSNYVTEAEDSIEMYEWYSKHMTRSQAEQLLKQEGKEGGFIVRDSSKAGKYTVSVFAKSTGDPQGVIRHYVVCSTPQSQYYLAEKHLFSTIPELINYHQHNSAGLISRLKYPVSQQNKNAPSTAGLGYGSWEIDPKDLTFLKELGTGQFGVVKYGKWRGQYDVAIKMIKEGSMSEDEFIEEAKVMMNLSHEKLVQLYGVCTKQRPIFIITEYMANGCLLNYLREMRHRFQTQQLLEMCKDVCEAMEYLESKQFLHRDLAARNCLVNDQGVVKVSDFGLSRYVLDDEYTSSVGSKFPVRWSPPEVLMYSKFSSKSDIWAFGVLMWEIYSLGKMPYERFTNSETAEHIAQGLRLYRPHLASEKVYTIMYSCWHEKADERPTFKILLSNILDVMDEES

In the case of Cc1cnc(-c2ccc(-c3ccc(NC(=O)Nc4ccc(C#N)c(F)c4)cc3F)c3c2C(=O)NC3)[nH]1 [Compound 15, 1-(4-cyano-3-fluorophenyl)-3-(3-fluoro-4-(7-(5-methyl-1H-imidazol-2-yl)-1-oxoisoindolin-4-yl)phenyl)urea], the pIC50 was 8.30.

Cc1cnc(-c2ccc(-c3ccc(NC(=O)Nc4ccc(F)c(F)c4)cc3F)c3c2C(=O)NC3)[nH]1 [Compound 14, 1-(3,4-difluoro-phenyl)-3-{3-fluoro-4-[7-(5-methyl-1H-imidazol-2-yl)-1-oxo-2,3-dihydro-1H-isoindol-4-yl]-phenyl}-urea] gave a pIC50 of 8.25.

Work on Cc1cnc(-c2ccc(-c3ccc(NC(=O)Nc4c(F)ccc(Cl)c4F)cc3F)c3c2C(=O)NC3)[nH]1 [Compound 17, 1-(3-chloro-2,6-difluorophenyl)-3-(3-fluoro-4-(7-(5-methyl-1H-imidazol-2-yl)-1-oxoisoindolin-4-yl)phenyl)urea] yielded a pIC50 of 10.30.

Work on Cc1cnc(-c2ccc(-c3ccc(NC(=O)Nc4c(F)cc(Cl)cc4F)cc3F)c3c2C(=O)NC3)[nH]1 [Compound 19, 1-(4-chloro-2,6-difluoro-phenyl)-3-{3-fluoro-4-[7-(5-methyl-1H-imidazol-2-yl)-1-oxo-2,3-dihydro-1H-isoindol-4-yl]-phenyl}-urea] yielded a pIC50 of 8.40.

With Cc1cnc(-c2ccc(-c3ccc(NC(=O)Nc4c(F)cccc4F)cc3F)c3c2C(=O)NC3)[nH]1 [Compound 3, 1-(2,6-difluoro-phenyl)-3-{3-fluoro-4-[7-(5-methyl-1H-imidazol-2-yl)-1-oxo-2,3-dihydro-1H-isoindol-4-yl]-phenyl}-urea] the pIC50 was 9.00.

In the case of Cc1cnc(-c2ccc(-c3ccc(NC(=O)Nc4c(F)cc(F)cc4F)cc3F)c3c2C(=O)NC3)[nH]1 [Compound 7, 1-{3-fluoro-4-[7-(5-methyl-1H-imidazol-2-yl)-1-oxo-2,3-dihydro-1H-isoindol-4-yl]-phenyl}-3-(2,4,6-trifluoro-phenyl)-urea], the pIC50 was 10.00.

Cc1cnc(-c2ccc(-c3ccc(NC(=O)Nc4c(F)ccc(F)c4Cl)cc3F)c3c2C(=O)NC3)[nH]1 [Compound 18, 1-(2-chloro-3,6-difluorophenyl)-3-(3-fluoro-4-(7-(5-methyl-1H-imidazol-2-yl)-1-oxoisoindolin-4-yl)phenyl)urea] gave a pIC50 of 10.15.

Compound Cc1cnc(-c2ccc(-c3ccc(NC(=O)Nc4c(F)c(F)c(F)c(F)c4F)cc3F)c3c2C(=O)NC3)[nH]1 [Compound 9, 1-{3-fluoro-4-[7-(5-methyl-1H-imidazol-2-yl)-1-oxo-2,3-dihydro-1H-isoindol-4-yl]-phenyl}-3-pentafluorophenyl-urea] has a pIC50 of 9.40.

Cc1cnc(-c2ccc(-c3ccc(NC(=O)Nc4c(F)ccc(F)c4F)cc3F)c3c2C(=O)NC3)[nH]1 [Compound 12, 1-{3-fluoro-4-[7-(5-methyl-1H-imidazol-2-yl)-1-oxo-2,3-dihydro-1H-isoindol-4-yl]-phenyl}-3-(2,3,6-trifluoro-phenyl)-urea] gave a pIC50 of 9.55.

In the case of Cc1cnc(-c2ccc(-c3ccc(NC(=O)Nc4c(F)c(F)cc(F)c4F)cc3F)c3c2C(=O)NC3)[nH]1 [Compound 20, 1-{3-fluoro-4-[7-(5-methyl-1H-imidazol-2-yl)-1-oxo-2,3-dihydro-1H-isoindol-4-yl]-phenyl}-3-(2,3,5,6-tetrafluoro-phenyl)-urea], the pIC50 was 9.05.

Cc1cnc(-c2ccc(-c3ccc(NC(=O)Nc4c(F)cccc4Cl)cc3F)c3c2C(=O)NC3)[nH]1 [Compound 4, 1-(2-chloro-6-fluoro-phenyl)-3-{3-fluoro-4-[7-(5-methyl-1H-imidazol-2-yl)-1-oxo-2,3-dihydro-1H-isoindol-4-yl]-phenyl}-urea] gave a pIC50 of 9.05.
